Here are results for 48 compounds from ChEMBL document CHEMBL1139191, “Discovery and biological evaluation of adamantyl amide 11beta-HSD1 inhibitors” (Bioorg Med Chem Lett, 2007).

Assay [1] deals with 11-beta-hydroxysteroid dehydrogenase 1 (Homo sapiens, UniProt P28845). The assay can be described thus: Inhibition of human 11beta-HSD1 expressed in HEK293 cells after 2 hrs by scintillation proximity assay. The assay is classed as cell-based.
Assay [2] has as its target T1, 11-beta-hydroxysteroid dehydrogenase type 2 (Homo sapiens) (UniProt P80365).
T1 sequence (whole entry): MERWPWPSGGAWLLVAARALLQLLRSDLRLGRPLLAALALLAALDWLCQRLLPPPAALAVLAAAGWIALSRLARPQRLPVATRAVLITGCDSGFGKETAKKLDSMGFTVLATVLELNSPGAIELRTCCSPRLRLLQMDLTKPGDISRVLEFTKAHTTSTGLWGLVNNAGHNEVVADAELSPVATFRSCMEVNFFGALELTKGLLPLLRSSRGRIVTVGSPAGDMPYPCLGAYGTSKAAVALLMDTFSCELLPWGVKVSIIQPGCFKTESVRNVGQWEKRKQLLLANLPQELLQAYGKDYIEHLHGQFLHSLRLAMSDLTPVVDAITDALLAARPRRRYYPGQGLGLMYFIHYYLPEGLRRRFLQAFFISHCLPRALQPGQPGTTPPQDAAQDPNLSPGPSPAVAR
Put plainly: Inhibition of human 11beta-HSD2 at 10 uM by scintillation proximity assay.

Assay [3] addresses 11-beta-hydroxysteroid dehydrogenase 1 (Mus musculus, UniProt P50172). The assay can be described thus: Inhibition of mouse 11beta-HSD1 expressed in CHO cells after 4 hrs by scintillation proximity assay. It is filed as cell-based. In general terms: Scintillation proximity formats need no separation of bound from free tracer.
Assay [4] has as its system Mus musculus. Put plainly: Inhibition of HSD1 in C57BL/6 mouse brain at 10 mg/kg, ip. It is filed as functional. Conditions: C57BL/6, Brain, route intraperitoneal.
The subject of assay [5] is Mus musculus. Put plainly: Inhibition of HSD1 in C57BL/6 mouse liver at 10 mg/kg, ip. It is filed as functional. Conditions: C57BL/6, Liver, route intraperitoneal.
Assay [6] deals with Mus musculus. The assay can be described thus: Inhibition of HSD1 in C57BL/6 mouse adipose tissue at 10 mg/kg, ip. Conditions: C57BL/6, Adipose tissue, route intraperitoneal. The assay is classed as functional.
Assay [7] relates to Mus musculus. The assay can be described thus: Inhibition of HSD1 in C57BL/6 mouse kidney at 10 mg/kg, ip. The assay is classed as functional. Conditions: C57BL/6, Kidney, route intraperitoneal.

11-beta-hydroxysteroid dehydrogenase 1 (Homo sapiens, UniProt P28845), sequence (P28845 whole entry): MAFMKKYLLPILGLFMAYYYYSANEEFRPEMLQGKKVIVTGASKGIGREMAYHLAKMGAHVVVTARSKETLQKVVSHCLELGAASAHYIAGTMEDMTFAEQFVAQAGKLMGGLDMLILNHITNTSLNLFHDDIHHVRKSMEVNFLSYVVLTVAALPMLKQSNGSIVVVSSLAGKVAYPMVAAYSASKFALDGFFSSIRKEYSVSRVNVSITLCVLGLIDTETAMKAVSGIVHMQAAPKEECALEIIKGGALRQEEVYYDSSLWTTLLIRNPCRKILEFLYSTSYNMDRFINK
11-beta-hydroxysteroid dehydrogenase 1 (Mus musculus, UniProt P50172), sequence (P50172 whole entry): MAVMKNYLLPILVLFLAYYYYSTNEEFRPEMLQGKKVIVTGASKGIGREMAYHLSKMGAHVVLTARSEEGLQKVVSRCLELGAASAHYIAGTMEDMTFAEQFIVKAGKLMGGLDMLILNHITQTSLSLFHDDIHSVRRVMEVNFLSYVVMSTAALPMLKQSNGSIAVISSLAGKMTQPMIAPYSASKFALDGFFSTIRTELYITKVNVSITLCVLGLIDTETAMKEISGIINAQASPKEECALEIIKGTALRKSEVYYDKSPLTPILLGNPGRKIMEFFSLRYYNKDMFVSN

As for `CCN1CCN(C(=O)C23CC4CC(CC(C4)C2)C3)CC1`, the IC50 (usually the midpoint of a concentration-inhibition curve) amounted to 0.756 µM in assay [1] and 0.3 µM in assay [3]. Further, the inhibition (as a rule, the drop in the measured response relative to a control, in per cent) in assay [2] came out at 11%.
In assay [1], `O=C(C1C2CC3CC(C2)CC1C3)N1CCCCC1` (stereo not given) returned an IC50 of 0.2 µM. In addition, the inhibition in assay [2] turned out to be 39%.
On the same counts, the results for `CCN1CCN(C(=O)c2ccccc2)CC1` are > 100 µM and 0%.
On the same counts, the results for `O=C(N1CCN(Cc2ccccc2)CC1)C12CC3CC(CC(C3)C1)C2` are 7.2 µM and 7%.
For the compound `CCN1CCN(C(=O)C23CC4CC(C2)CC(c2ccc(OC)cc2)(C4)C3)CC1`, the IC50 in assay [1] worked out at 0.6 µM. For the same compound, in assay [2], the inhibition was 51%.
In assay [1], `CCN1CCN(C(=O)C23CC4CC(CC(O)(C4)C2)C3)CC1` yielded an IC50 of 53 µM.
For `O=C(N1CCN(CCc2ccccc2)CC1)C12CC3CC(CC(C3)C1)C2`, the IC50 in assay [1] worked out at 47 µM. The same compound gave an inhibition in assay [2] of 0%.
The compound `CCN1CCN(C(=O)C2(c3ccc(F)cc3)CCCC2)CC1` displayed an IC50 in assay [1] of 12 µM. This compound also came in with an inhibition in assay [2] of 0%.
Regarding `Cc1ccc(C23CC4CC(CC(C(=O)N5CCN(C)CC5)(C4)C2)C3)cc1`, the inhibition in vivo – broadly, the relative decrease from the control value, in per cent – at 10 mg/kg in the assay on Mus musculus [4] worked out at 39%; in the assay on Mus musculus [5], 63%; with Mus musculus [6], 54%; in the assay on Mus musculus [7], 0%. Further, the IC50 in assay [1] came out at 0.08 µM; in assay [3], 0.081 µM. Moreover, the inhibition in assay [2] is 0%.
Take `O=C(N1CCN(CCO)CC1)C12CC3CC(CC(C3)C1)C2`: the IC50 in assay [1] was determined as 1.47 µM; in assay [3], 0.494 µM. Also, the inhibition in assay [2] turned out to be 31%.
For the compound `CCN1CCN(C(=O)CC23CC4CC(CC(C4)C2)C3)CC1`, in assay [1], 4.1 µM corresponded to half-maximal inhibition (IC50). Further, the inhibition in assay [2] is 1%.
`CN1CCN(C(=O)C23CC4CC(CC(C4)C2)C3)CC1` registered a 50% inhibitory concentration (IC50) in assay [1] of 0.7 µM. In addition, in assay [2], the inhibition came to 13%.
On the same counts, the results for `O=C(N1CCN(S(=O)(=O)Cc2ccccc2)CC1)C12CC3CC(CC(C3)C1)C2` are 13 µM and 39%.
Taken in the same sequence, the figures for `O=C(N1CCNCC1)C12CC3CC(CC(C3)C1)C2` were 8.2 µM and 31%.
On the same counts, the results for `CCN1CCN(C(=O)C2=C(C)c3ccccc3C2)CC1` are 15 µM and 0%.
The compound `Cc1ccc(C23CC4CC(CC(C(=O)N5CCN(Cc6ccncc6)CC5)(C4)C2)C3)cc1` showed an IC50 in assay [1] of 8.1 µM. Moreover, the inhibition in assay [2] was 0%.
`Cc1ccc(C23CC4CC(CC(C(=O)N5CCN(C(=O)c6ccccc6)CC5)(C4)C2)C3)cc1` registered an IC50 in assay [1] of 36 µM. Besides, in assay [2], the inhibition came out at 0%.
On the same counts, the results for `Cc1ccc(C23CC4CC(CC(C(=O)N5CCN(S(=O)(=O)c6ccccc6)CC5)(C4)C2)C3)cc1` are 64 µM and 48%.
Taken in the same sequence, the figures for `Cc1ccc(C23CC4CC(CC(C(=O)N5CCN(C(C#N)C(C)C)CC5)(C4)C2)C3)cc1` (stereo not given) were 10 µM and 56%.
On the same counts, the results for `O=C(N1CCCCC1)C12CC3CC(CC(O)(C3)C1)C2` are 7.3 µM and 9%.
`CCN1CCN(C(=O)C2CC3CCC2C3)CC1` (stereo not given) came in with an IC50 in assay [1] of 44 µM. This compound gave an inhibition in assay [2] of 0%.
`CCN1CCN(C(=O)C2CCCCC2)CC1`: the IC50 in assay [1] was determined as 53 µM. This compound registered an inhibition in assay [2] of 0%.
Take `O=C(N1CCN(c2ccccc2)CC1)C12CC3CC(CC(C3)C1)C2`: the IC50 in assay [1] was > 100 µM. The inhibition in assay [2] stood at 0%.
With `Cc1ccc(C23CC4CC(CC(C(=O)N5CCN(c6ccccc6)CC5)(C4)C2)C3)cc1`, half-maximal inhibition in assay [1] (IC50) was put at 7.3 µM.
Turning to `Cc1ccc(C23CC4CC(CC(C(=O)N5CCN(Cc6ccccc6)CC5)(C4)C2)C3)cc1`, in assay [1], the IC50 came to 1.5 µM. This compound also showed an inhibition in assay [2] of 80%.
In the case of `CCN1CCN(C(=O)C2CCC(C(C)(C)C)CC2)CC1` (stereo not given), the IC50 is 20 µM in assay [1] and 1.2 µM in assay [3]. Further, the inhibition in assay [2] amounted to 0%.
Take `CCN1CCN(C(=O)C23CC4CC(CC(Cc5ccccc5)(C4)C2)C3)CC1`: the IC50 in assay [1] worked out at 1 µM. Besides, the inhibition in assay [2] worked out at 0%.
On the same counts, the results for `N#CC(c1ccccc1)N1CCN(C(=O)C23CC4CC(CC(C4)C2)C3)CC1` (stereo not given) are 24 µM and 39%.
With `O=C(N1CCCc2ccccc21)C12CC3CC(CC(C3)C1)C2`, the IC50 in assay [1] amounted to 1.86 µM; in assay [3] it was 0.481 µM. The compound also came in with an inhibition in assay [2] of 0%.
Turning to `CC(C)C(C#N)N1CCN(C(=O)C23CC4CC(CC(C4)C2)C3)CC1` (stereo not given), in assay [1], the IC50 was found to be 20 µM. In assay [2], this compound gave an inhibition of 45%.
On the same counts, the results for `O=C(N1CCN(Cc2ccncc2)CC1)C12CC3CC(CC(C3)C1)C2` are 7.2 µM and 0%.
For `O=C(N1CCCC1)C12CC3CC(CC(C3)C1)C2`, in assay [1], it took 0.498 µM to reach half-maximal inhibition (IC50). In addition, the inhibition in assay [2] was 37%.
Taken in the same sequence, the figures for `COCCN1CCN(C(=O)C23CC4CC(C2)CC(c2ccc(C)cc2)(C4)C3)CC1` were 2.1 µM and 41%.
On the same counts, the results for `O=C(N1CCN(S(=O)(=O)c2ccccc2)CC1)C12CC3CC(CC(C3)C1)C2` are > 100 µM and 35%.
Taken in the same sequence, the figures for `Cc1ccc(C23CC4CC(CC(C(=O)N5CCN(C(C#N)c6ccccc6)CC5)(C4)C2)C3)cc1` (stereo not given) were 2.1 µM and 48%.
As for `Cc1ccc(C23CC4CC(CC(C(=O)N5CCN(CCO)CC5)(C4)C2)C3)cc1`, the IC50 in assay [1] came out at 0.498 µM; in assay [3], 0.043 µM. Also, in assay [2], the inhibition amounted to 40%.
Consider `Cc1ccc(C23CC4CC(CC(C(=O)N5CCN(S(=O)(=O)Cc6ccccc6)CC5)(C4)C2)C3)cc1`, for which 7.7 µM corresponded to half-maximal inhibition in assay [1] (IC50). In addition, in assay [2], the inhibition is 26%.
`O=C(N1CCc2ccccc2C1)C12CC3CC(CC(C3)C1)C2` came in with an IC50 in assay [1] of 5.6 µM.
With `CCN1CCN(C(=O)C(C)(C)C)CC1`, the IC50 in assay [1] is > 100 µM. In assay [2], the inhibition was 0%.
Taken in the same sequence, the figures for `CCN1CCN(C(=O)CCC2CCCCC2)CC1` were 48 µM and 0%.
Regarding `O=C(N1CCCCC1)C12CC3CC(CC(C3)C1)C2`, the IC50 in assay [1] was determined as 0.193 µM; in assay [3] it was 0.134 µM. This compound yielded an inhibition in assay [2] of 0%.
As for `Cc1ccc(C23CC4CC(CC(C(=O)N5CCN(CCc6ccccc6)CC5)(C4)C2)C3)cc1`, the IC50 in assay [1] was 1.9 µM. For the same compound, in assay [2], the inhibition stood at 53%.
On the same counts, the results for `CCN1CCN(C(=O)Cc2ccccc2)CC1` are 7.2 µM and 11%.
For the compound `O=C(N1CCC2CCCCC2C1)C12CC3CC(CC(C3)C1)C2` (stereo not given), the IC50 in assay [1] is 0.846 µM; in assay [3], 0.23 µM. This compound also had an inhibition in assay [2] of 0%.
With `O=C(c1ccccc1)N1CCN(C(=O)C23CC4CC(CC(C4)C2)C3)CC1`, the IC50 in assay [1] is > 100 µM. For the same compound, the inhibition in assay [2] came out at 20%.
On the same counts, the results for `CCN1CCN(C(=O)C2CC2)CC1` are > 100 µM and 0%.
For the compound `CCN1CCN(C(=O)CC2CCCCC2)CC1`, the IC50 in assay [1] was > 100 µM. Also, in assay [2], the inhibition amounted to 40%.
Compound `COCCN1CCN(C(=O)C23CC4CC(CC(C4)C2)C3)CC1` registered a concentration for half-maximal inhibition (IC50) in assay [1] of 12 µM. This compound registered an inhibition in assay [2] of 7%.
